{
  "source": "patent US7728042B2",
  "about": "“Transdermal pharmaceutical composition” (Richter Gedeon Vegyeszeti Gyar RT, priority 2003, dated 2010)",
  "key": {"[1]": {"assay": "Active agent release, Microette Hanson vertical diffusion cell, hydrophilic membrane soaked with water", "details": "for Release kinetics of the active agent: liquid crystal transdermal gel, Q=Q0+nt^0.5"}, "[2]": {"assay": "Active agent release, Microette Hanson vertical diffusion cell, lipophilic membrane soaked with isopropyl myristate", "details": "release from liquid crystal gel, FIGS. 7-14"}, "[3]": {"details": "oral administration; cited from earlier work"}},
  "data": [
    {"molecule": "CCc1ccc(C(=O)C(C)CN2CCCCC2)cc1", "note": "(stereo not shown) [Eperisone, 1-(4-ethyl-phenyl)-2-methyl-3-(1-piperidinyl)-1-propanon]", "values": [
      {"measurement": "Release kinetics of the active agent", "setting": "[1]", "result": "generally follows the Higuchi-like relationship"}
    ]},
    {"molecule": "CNC1(c2ccccc2Cl)CCCCC1=O", "note": "(stereo not shown) [Ketamine, 2-(2-chloro-phenyl)-2-(methyl-amino)-cyclohexanon]", "values": [
      {"measurement": "Crossing of the membrane impregnated with lipophilic fluid", "setting": "[2]", "result": "do not cross the membrane impregnated with lipophilic fluid"},
      {"measurement": "Active agent release in 4 hours, Hydrophilic membrane", "setting": "[1]; liquid crystal gel with low molecular weight sodium-hyaluronate, ondansetron 1.2%, terbinafine 2.0%, metronidazole 0.9%, eperisone 0.8%, tolperisone 1.0%, ketamine 1.0%", "result": 9.73, "unit": "μg/cm^2"},
      {"measurement": "Release kinetics of the active agent", "setting": "[1]", "result": "generally follows the Higuchi-like relationship"},
      {"measurement": "Crossing of the hydrophilic membrane", "setting": "[1]; release from liquid crystal gel, FIGS. 7-14", "result": "cross the hydrophilic membrane quickly and effectively"}
    ]},
    {"molecule": "Cc1ncc([N+](=O)[O-])n1CCO", "note": "[Metronidazole, 1-(2-hydroxy-1-ethyl)-2-methyl-5-nitro-imidazol]", "values": [
      {"measurement": "Release kinetics of the active agent", "setting": "[1]", "result": "generally follows the Higuchi-like relationship"}
    ]},
    {"molecule": "Cc1nccn1CC1CCc2c(c3ccccc3n2C)C1=O", "note": "(stereo not shown) [Ondansetron, 1,2,3,9-tetrahydro-9-methyl-3-[(2-methyl-1H-imidazol-1-il)-methyl]-4H-karbazol-4-on]", "values": [
      {"measurement": "Release kinetics of the active agent", "setting": "[1]", "result": "generally follows the Higuchi-like relationship"}
    ]},
    {"molecule": "CN(C/C=C/C#CC(C)(C)C)Cc1cccc2ccccc12", "note": "[Terbinafine, N-(6,6-dimethyl-2-heptene-4-inyl)-N-methyl-(E)-naphtal-1-en-methan-amine]", "values": [
      {"measurement": "Release kinetics of the active agent", "setting": "[1]", "result": "generally follows the Higuchi-like relationship"}
    ]},
    {"molecule": "Cc1ccc(C(=O)C(C)CN2CCCCC2)cc1", "note": "(stereo not shown) [Tolperisone, 1-piperidino-2-methyl-3-(p-tolyl)-3-propanon]", "values": [
      {"measurement": "Release kinetics of the active agent", "setting": "[1]", "result": "generally follows the Higuchi-like relationship"}
    ]},
    {"molecule": "CCOC(=O)C1=C[C@]2(CC)CCCN3CCc4c(n1c1ccccc41)[C@@H]32", "note": "[vinpocetine, (3α,16α)-eburnamenine-14-carboxylic acid ethylester]", "values": [
      {"measurement": "Bioavailability", "setting": "[3]", "result": "6-8%"}
    ]}
  ]
}
